Target: T1, human NHE3 (Homo sapiens, UniProt P48764)
T1 construct: myc; expressed in transfected cells
T1 sequence (P48764 26-834): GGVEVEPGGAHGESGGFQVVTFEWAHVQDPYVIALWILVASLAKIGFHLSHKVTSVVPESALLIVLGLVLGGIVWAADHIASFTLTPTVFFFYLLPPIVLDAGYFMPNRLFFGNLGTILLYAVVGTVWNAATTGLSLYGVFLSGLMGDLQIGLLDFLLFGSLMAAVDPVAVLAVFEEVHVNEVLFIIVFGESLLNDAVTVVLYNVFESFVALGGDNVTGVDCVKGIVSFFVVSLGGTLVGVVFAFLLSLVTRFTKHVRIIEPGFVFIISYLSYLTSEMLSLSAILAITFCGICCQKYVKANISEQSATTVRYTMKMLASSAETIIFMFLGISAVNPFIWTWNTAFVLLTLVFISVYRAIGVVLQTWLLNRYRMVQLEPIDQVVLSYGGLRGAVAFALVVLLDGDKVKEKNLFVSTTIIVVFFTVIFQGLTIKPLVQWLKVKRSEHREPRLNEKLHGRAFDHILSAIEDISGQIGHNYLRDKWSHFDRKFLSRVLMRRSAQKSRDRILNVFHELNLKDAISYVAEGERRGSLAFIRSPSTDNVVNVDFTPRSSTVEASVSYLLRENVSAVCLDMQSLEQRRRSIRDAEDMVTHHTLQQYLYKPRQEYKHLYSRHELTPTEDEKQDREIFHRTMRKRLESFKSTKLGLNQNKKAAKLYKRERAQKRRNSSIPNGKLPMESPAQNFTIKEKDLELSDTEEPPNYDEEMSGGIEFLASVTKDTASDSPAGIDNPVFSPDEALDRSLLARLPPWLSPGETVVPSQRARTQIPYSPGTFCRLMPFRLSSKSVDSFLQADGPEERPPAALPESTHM
Experiment: In vitro NHE3 inhibition activity (intracellular pH recovery, BCECF-AM, NHD C8 cells overexpressing human NHE3)
Format: cell-based
Settings: geometric mean of individual IC50
Description: In Vitro NHE3 Inhibition Activity
To create an NHE3 assay, cells selectively expressing NHE3 are generated by overexpressing human NHE3 in an endogenously NHE-deficient cell line. The NHE-deficient cell line is created by chemical-induced mutagenesis. After the mutagenesis, NHE-deficient cells are selected by subjecting lithium (Li) loaded cells to an acidic extracellular environment. Under these conditions, NHE exchanges intracellular Li^+ for extracellular protons, thus only NHE-deficient cells can avoid a toxic intracellular acidosis and survive.
An NHE-deficient cell line, NHD C8, is generated by mutagenesis and selection from the cell line Dede (ATCC® CCL-39™). The mutagenesis is induced by treating Dede CCL-39 cells with EMS (Sigma-Aldrich) in growth media at a final concentration of 500 μg/ml for 20 h. […]
To measure NHE activity, the intracellular pH of the cells is reduced by addition of NH4Cl. The sodium-dependent intracellular pH change is then measured by the intracellular pH-sensitive fluorescein dye, BCECF-AM (Molecular Probes-ThermoFisher Scientific). […] The plate is immediately read for fluorescent intensity at an excitation wavelength of 505 nm and emission wavelength of 550 nm. […]

Structure (SMILES): CN1Cc2c(Cl)cc(Cl)cc2[C@H](c2cccc(S(=O)(=O)NCCOCCOCCN/C(=N\C(N)=O)NCCCCN/C(=N/C(N)=O)NCCOCCOCCNS(=O)(=O)c3cccc([C@@H]4CN(C)Cc5c(Cl)cc(Cl)cc54)c3)c2)C1.Cl.Cl [Example 2, [[4-[[N′-Carbamoyl-N-[2-[2-[2-[[3-[(4S)-6,8-dichloro-2-methyl-3,4-dihydro-1H-isoquinolin-4-yl]phenyl]sulfonylamino]ethoxy]ethoxy]ethyl]carbamimidoyl]amino]butylamino]-[2-[2-[2-[[3-[(4S)-6,8-dichloro-2-methyl-3,4-dihydro-1H-isoquinolin-4-yl]phenyl]sulfonylamino]ethoxy]ethoxy]ethylamino]methylene]urea dihydrochloride]
- IC50: 5.76 nM

From US12428377B2, “Sodium-hydrogen exchanger 3 inhibitor compounds” (Eli Lilly and Company, priority 2019, dated 2025)
